# Source: ChEMBL document CHEMBL1201862, “PubChem BioAssay data set” (2004)
#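 Five compound concentrations were applied to cells in 96-well plates for 48 hours; endpoints were derived by simple linear interpolation of the resulting dose-response curve. GI50 = concentration required for 50% inhibition of growth.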 The source made the active and inactive calls. No stated cut-off is given here; in the data, active = GI50 up to about 1.1 µM and inactive = higher.
# Assays:
# Experiment in all cases: DTP human tumour cell line panel, 48 h
# 786-0 = tested on: 786-0
# A498 = tested on: A498
# CAKI-1 = tested on: CAKI-1
# DU-145 = tested on: DU-145
# HL-60 = tested on: HL-60
# K562 = tested on: K562
# KM12 = tested on: KM12
# LOX IMVI = tested on: LOX IMVI
# MCF7 = tested on: MCF7
# MDA-N = tested on: MDA-N
# OVCAR-5 = tested on: OVCAR-5
# SF-539 = tested on: SF-539
# SK-MEL-2 = tested on: SK-MEL-2
# SR = tested on: SR
# SW-620 = tested on: SW-620
# T47D = tested on: T47D
# U-251 = tested on: U-251
# HCC 2998 = tested on: HCC 2998
SMILES,GI50 (786-0),GI50 (A498),GI50 (CAKI-1),GI50 (DU-145),GI50 (HL-60),GI50 (K562),GI50 (KM12),GI50 (LOX IMVI),GI50 (MCF7),GI50 (MDA-N),GI50 (OVCAR-5),GI50 (SF-539),GI50 (SK-MEL-2),GI50 (SR),GI50 (SW-620),GI50 (T47D),GI50 (U-251),GI50 (HCC 2998)
NNS(=O)(=O)c1cc(C(=O)O)cc(C(=O)O)c1,> 100 µM (inactive),> 100 µM (inactive),> 100 µM (inactive),> 100 µM (inactive),> 100 µM (inactive),> 100 µM (inactive),> 100 µM (inactive),> 100 µM (inactive),> 100 µM (inactive),> 100 µM (inactive),> 100 µM (inactive),> 100 µM (inactive),> 100 µM (inactive),> 100 µM (inactive),> 100 µM (inactive),> 100 µM (inactive),> 100 µM (inactive),
Clc1ccc(OCC2NC3C=CC32)cn1 (centres undefined),> 100 µM (inactive),,> 100 µM (inactive),> 100 µM (inactive),> 100 µM (inactive),59.3 µM (inactive),> 100 µM (inactive),> 100 µM (inactive),55 µM (inactive),> 100 µM (inactive),> 100 µM (inactive),> 100 µM (inactive),> 100 µM (inactive),39.8 µM (inactive),> 100 µM (inactive),> 100 µM (inactive),> 100 µM (inactive),> 100 µM (inactive)
CC1(C)CC2C(C1=O)C1(C)CCCC2(C)C1=O (centres undefined),> 100 µM (inactive),,> 100 µM (inactive),> 100 µM (inactive),> 100 µM (inactive),> 100 µM (inactive),> 100 µM (inactive),> 100 µM (inactive),> 100 µM (inactive),> 100 µM (inactive),> 100 µM (inactive),> 100 µM (inactive),> 100 µM (inactive),> 100 µM (inactive),> 100 µM (inactive),> 100 µM (inactive),> 100 µM (inactive),> 100 µM (inactive)
C=C(C)COC(=O)COCC(=O)OCC(=C)C,> 100 µM (inactive),> 100 µM (inactive),> 100 µM (inactive),> 100 µM (inactive),,> 100 µM (inactive),> 100 µM (inactive),,> 100 µM (inactive),> 100 µM (inactive),> 100 µM (inactive),,,> 100 µM (inactive),> 100 µM (inactive),> 100 µM (inactive),> 100 µM (inactive),> 100 µM (inactive)
C1CSC2=C(S1)SC1=C(S2)SC(=C2SC3=C(SC4=C(SCCS4)S3)S2)S1,> 100 µM (inactive),> 100 µM (inactive),> 100 µM (inactive),> 100 µM (inactive),23.9 µM (inactive),> 100 µM (inactive),> 100 µM (inactive),,> 100 µM (inactive),> 100 µM (inactive),> 100 µM (inactive),> 100 µM (inactive),74.1 µM (inactive),87.7 µM (inactive),> 100 µM (inactive),> 100 µM (inactive),> 100 µM (inactive),> 100 µM (inactive)
c1ccc(CCCNc2nnnc3ccccc23)cc1,> 100 µM (inactive),> 100 µM (inactive),46.7 µM (inactive),> 100 µM (inactive),> 100 µM (inactive),47.5 µM (inactive),> 100 µM (inactive),99.5 µM (inactive),46 µM (inactive),69 µM (inactive),> 100 µM (inactive),57 µM (inactive),> 100 µM (inactive),92.9 µM (inactive),> 100 µM (inactive),23.2 µM (inactive),> 100 µM (inactive),
CCOC(=O)C1C(=O)CC(O)(OCC)C(C(=O)OCC)C1c1ccc(OC)cc1 (centres undefined),> 100 µM (inactive),> 100 µM (inactive),> 100 µM (inactive),> 100 µM (inactive),> 100 µM (inactive),> 100 µM (inactive),> 100 µM (inactive),> 100 µM (inactive),> 100 µM (inactive),> 100 µM (inactive),> 100 µM (inactive),,> 100 µM (inactive),> 100 µM (inactive),> 100 µM (inactive),> 100 µM (inactive),> 100 µM (inactive),> 100 µM (inactive)
COc1ccc(C(O)c2ccccn2)cc1 (centres undefined),> 100 µM (inactive),> 100 µM (inactive),> 100 µM (inactive),> 100 µM (inactive),,> 100 µM (inactive),> 100 µM (inactive),> 100 µM (inactive),> 100 µM (inactive),> 100 µM (inactive),> 100 µM (inactive),> 100 µM (inactive),> 100 µM (inactive),> 100 µM (inactive),> 100 µM (inactive),> 100 µM (inactive),> 100 µM (inactive),
Cc1c/c(=N\c2ccc3c(c2)c(N)cc(C)[n+]3C)nc(N)n1C,> 100 µM (inactive),> 100 µM (inactive),> 100 µM (inactive),> 100 µM (inactive),,> 100 µM (inactive),> 100 µM (inactive),> 100 µM (inactive),> 100 µM (inactive),> 100 µM (inactive),> 100 µM (inactive),> 100 µM (inactive),> 100 µM (inactive),> 100 µM (inactive),> 100 µM (inactive),> 100 µM (inactive),88.3 µM (inactive),
[N-]=[N+]=Nc1c(Cl)c(Cl)nc2ccccc12,> 100 µM (inactive),81.5 µM (inactive),21.2 µM (inactive),72.1 µM (inactive),,81.3 µM (inactive),> 100 µM (inactive),62.1 µM (inactive),54.5 µM (inactive),> 100 µM (inactive),> 100 µM (inactive),> 100 µM (inactive),> 100 µM (inactive),> 100 µM (inactive),93.8 µM (inactive),68.1 µM (inactive),,> 100 µM (inactive)
CN(C)CCNCc1ccc2c(-c3ccccc3)nc3cc(Cl)c(Cl)cc3n12,5.96 µM (inactive),15.2 µM (inactive),8.51 µM (inactive),9.64 µM (inactive),2.01 µM (inactive),8.32 µM (inactive),9.73 µM (inactive),7.48 µM (inactive),6.19 µM (inactive),9.48 µM (inactive),10.6 µM (inactive),7.35 µM (inactive),9.57 µM (inactive),,8.83 µM (inactive),4.94 µM (inactive),9.08 µM (inactive),2.33 µM (inactive)
CN(Cc1c[n+]([O-])c2nc(N)nc(N)c2n1)c1ccc(C(=O)NC23CC4CC(CC(C4)C2)C3)cc1,> 100 µM (inactive),13.5 µM (inactive),> 100 µM (inactive),> 100 µM (inactive),31 µM (inactive),48.9 µM (inactive),> 100 µM (inactive),> 100 µM (inactive),47.8 µM (inactive),70.6 µM (inactive),> 100 µM (inactive),,> 100 µM (inactive),28.8 µM (inactive),> 100 µM (inactive),75.2 µM (inactive),34.5 µM (inactive),
COC[C@H]1OC(=O)c2coc3c2[C@@]1(C)C1=C(C3=O)[C@@H]2CCC(=O)[C@@]2(C)C[C@H]1OC(C)=O [WORTMANNIN],8.43 µM (inactive),,0.0108 µM (active),3.34 µM (inactive),,37.2 µM (inactive),11.5 µM (inactive),3.66 µM (inactive),5.66 µM (inactive),15.1 µM (inactive),15 µM (inactive),2.82 µM (inactive),2.21 µM (inactive),1.84 µM (inactive),17.7 µM (inactive),0.637 µM (active),,2.16 µM (inactive)
CCCCNC(=S)Nc1nc(C(=O)NNC(=S)NCC)cs1,> 100 µM (inactive),> 100 µM (inactive),63.5 µM (inactive),73.5 µM (inactive),,,76.9 µM (inactive),33.2 µM (inactive),> 100 µM (inactive),82 µM (inactive),> 100 µM (inactive),73.5 µM (inactive),> 100 µM (inactive),6.73 µM (inactive),97.9 µM (inactive),16.7 µM (inactive),> 100 µM (inactive),> 100 µM (inactive)
C[C@]1(O)CC(=O)c2c(c(-c3ccc4cc5c(c(O)c4c3O)C(=O)C[C@@](C)(O)C5)c3cccc(O)c3c2O)C1,5.37 µM (inactive),5.42 µM (inactive),5.14 µM (inactive),5.53 µM (inactive),,11.9 µM (inactive),3.31 µM (inactive),6.37 µM (inactive),5.53 µM (inactive),4.56 µM (inactive),9.46 µM (inactive),2.75 µM (inactive),2.52 µM (inactive),5.56 µM (inactive),6 µM (inactive),2.86 µM (inactive),4.02 µM (inactive),4.58 µM (inactive)
CC(NC(=O)C(NC(=O)CNC(=O)OC(C)(C)C)C(C)C)C(=O)Oc1c(Cl)c(Cl)c(Cl)c(Cl)c1Cl (centres undefined),,21.8 µM (inactive),19 µM (inactive),20.5 µM (inactive),55.2 µM (inactive),50.7 µM (inactive),15.1 µM (inactive),15.5 µM (inactive),25.5 µM (inactive),25.1 µM (inactive),14.7 µM (inactive),17.5 µM (inactive),14.3 µM (inactive),71 µM (inactive),24.7 µM (inactive),23.1 µM (inactive),21.1 µM (inactive),19.6 µM (inactive)
NCCCCCCn1c(-c2ccc(Br)cc2)cs/c1=N\c1ccccc1,10.2 µM (inactive),17.9 µM (inactive),14.6 µM (inactive),13.5 µM (inactive),,2.01 µM (inactive),5.74 µM (inactive),2.53 µM (inactive),5.21 µM (inactive),6.28 µM (inactive),12.2 µM (inactive),13.1 µM (inactive),18.6 µM (inactive),3.51 µM (inactive),4.28 µM (inactive),5.08 µM (inactive),7.89 µM (inactive),3.75 µM (inactive)
